The values that follow are results of earlier work, collected in publication PMC3065533 (Journal of nuclear medicine : official publication, Society …, 2011).

This series addresses melanocortin-1 (MC1) receptor (Mus musculus, UniProt Q01727). As to conditions: stated in methods without reference.

Sequence of melanocortin-1 (MC1) receptor (Q01727 whole entry): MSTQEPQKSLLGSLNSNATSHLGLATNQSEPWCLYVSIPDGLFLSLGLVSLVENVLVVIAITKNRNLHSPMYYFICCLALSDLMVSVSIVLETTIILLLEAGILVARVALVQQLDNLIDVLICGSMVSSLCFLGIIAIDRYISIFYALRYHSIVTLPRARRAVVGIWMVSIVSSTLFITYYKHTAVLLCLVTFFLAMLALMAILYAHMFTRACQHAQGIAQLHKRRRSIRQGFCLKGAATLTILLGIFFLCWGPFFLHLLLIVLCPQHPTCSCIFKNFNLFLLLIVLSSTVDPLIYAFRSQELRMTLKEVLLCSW

Take NDP-MSH: the “MC1 receptor binding affinity (in words)” value was “picomolar”.
